{"source": "patent US7550487B2", "about": "“Pyrrolidine-3,4-dicarboxamide derivatives” (Hoffmann-La Roche Inc., priority 2004, dated 2009)", "target": "T1, human factor Xa (Homo sapiens, UniProt P00742)", "T1 construct": "purchased Enzyme Research Laboratories", "T1 sequence (P00742 235-488 limits assumed)": "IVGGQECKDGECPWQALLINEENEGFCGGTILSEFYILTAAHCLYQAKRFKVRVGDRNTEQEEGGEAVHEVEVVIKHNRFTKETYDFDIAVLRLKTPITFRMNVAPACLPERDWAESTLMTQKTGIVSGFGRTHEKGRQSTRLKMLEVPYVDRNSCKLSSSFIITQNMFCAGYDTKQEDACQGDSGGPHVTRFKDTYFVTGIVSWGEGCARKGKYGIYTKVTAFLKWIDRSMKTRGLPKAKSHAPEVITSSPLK", "T1 sequence (P00742 41-179 partner limits assumed)": "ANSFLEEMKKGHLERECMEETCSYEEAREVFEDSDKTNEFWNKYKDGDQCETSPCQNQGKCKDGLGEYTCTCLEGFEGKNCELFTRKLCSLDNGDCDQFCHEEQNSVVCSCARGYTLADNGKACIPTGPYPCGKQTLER", "experiment": "Factor Xa chromogenic peptide substrate assay (S-2222)", "assay_type": "biochemical", "note": "pKi: −log10 of the molar value.", "description": "Factor Xa activity was measured spectrophotometrically in microtiter plates in a final volume of 150 μl using the following conditions: Inhibition of human factor Xa (Enzyme Research Laboratories) was tested at an enzyme concentration of 3 nM using the chromogenic substrate S-2222 (Chromogenix AB, Mölndal, Sweden) at 200 nM. The reaction kinetics of the enzyme and the substrate were linear with both time and the enzyme concentration. The inhibitors were dissolved in DMSO and tested at various concentrations up to 100 μM. The inhibitors were diluted using HNPT buffer consisting of HEPES 100 mM, NaCl 140 mM, PEG 6000 0.1% and Tween 80 0.02%, pH 7.8. […] The velocity of the reaction was determined by the autoreader from the slope of the linear regression fit to 7 time points (1 minute). The initial velocity for each inhibitor concentration was determined by the slope of at least 4 time points in the linear phase by a linear regression fit (mOD/min^2). Apparent dissociation constants Ki were calculated according to Cheng and Prusoff [Cheng, Y. C.; Prusoff, W. H. Relationship between the inhibition constant (Ki) and the concentration of the inhibitor that causes 50 percent inhibition (IC50) of an enzyme reaction. Biochem. Pharmacol. 1973, 22, 3099-3108.] based on the IC50 and the respective Km, determined previously (Ki=IC50/(1+S/Km)). […]"}
{"smiles": "CNC(=O)CN1C[C@H](C(=O)Nc2ccc(Cl)cc2)[C@@H](C(=O)Nc2ccc(-n3ccccc3=O)cc2F)C1", "note": "[Example 26, (3R,4R)-1-Methylcarbamoylmethyl-pyrrolidine-3,4-dicarboxylic acid 3-[(4-chloro-phenyl)-amide] 4-{[2-fluoro-4-(2-oxo-2H-pyridin-1-yl)-phenyl]-amide}]", "values": [{"measurement": "pKi", "result": 7.66}]}
